Assay results taken from a melting point compilation (Tetko et al.; mined from patent text by program, amines drawn as free bases though some values may be those of a salt).

Row | Structure (SMILES) | melting point
1 | CCNC(=O)Nc1nc2cc(-c3cccnc3)cc(OCCN(C)C)n2n1 | 200 to 202 °C
2 | CN1C(=O)C(F)N=C(c2ccccc2Cl)c2cc(Cl)ccc21 (stereo not drawn) | 204 to 205 °C
3 | CC1Oc2c(cc(CN3CCN(c4ccc(C(=O)NC5CC5)cc4)CC3)cc2C2CC2)NC1=O (stereo not drawn) | 202 to 207 °C
4 | CC1(c2cc(-c3cccc(CC4SC(N5CCCC5)=NC4=O)c3)ccc2O)CCCCC1 (stereo not drawn) | 109 to 110 °C
5 | CCCc1c(C(=O)C(C)C)c2ccc(C(=O)O)cc2n1Cc1ccc(Br)cc1F | 210 to 211 °C
6 | COC(=O)C1=C(CF)NC(C)=C(C(=O)OC(C)C)C1c1cccc(OC)c1OC (stereo not drawn) | 89 to 91 °C
7 | CCOC(=O)c1ccc(-c2nc3ccc(C)cn3c2CNC(=O)CC(C)C)cc1 | 230 to 231 °C
8 | CS(=O)(=O)c1ncc(OCc2ccccc2)cn1 | 100 to 102 °C
9 | COC(=O)C(=CN(C)C)C(=O)c1cc(F)c(Cl)cc1Cl | 107 to 109 °C
10 | CC(C)C[C@H](NC(=O)OC(C)(C)C)C(=O)N[C@@H](C(C)C)[C@@H](O)c1c(-c2ccc(F)cc2)c1=O | 90 to 96 °C
11 | CS/C=C(/C)n1c(=O)n(C)c2cc(F)ccc21 | 110 °C
12 | CCC(=O)OC1(C(=O)CCl)C(C)CC2C3CCC4CC(=O)CCC4(C)C3(Cl)C(Cl)CC21C (stereo not drawn) | 164 °C
13 | CCN(C)c1nc(-c2cc(OC)c(OC)c(OC)c2)nc2sc(C#N)c(C)c12 | 163 to 164 °C
14 | CCOC(=O)c1c(CCCN(CC)CC)nc2cc(OC)c(OC)cc2c1-c1ccc(OC)c(OC)c1 | 96 to 98 °C
15 | Cc1cccc(C)c1NC(=O)CN1CCNCC1CC(N)=O (stereo not drawn) | 172 °C
16 | CCOC(=O)Nc1cc(OC2CCCC2)c(Cl)cc1F | 92.8 to 97.8 °C
17 | CNC(=O)N(O)C(C)c1ccc(Cl)cc1 (stereo not drawn) | 117 to 120 °C
18 | Cc1cccc(C(=O)N2CCC3(CC2)CSC2=C(O3)c3ccccc3C(=O)C2=O)c1 | 188 to 190 °C
19 | COc1ccc(-c2c(C(=O)CC(C)C)c(CSc3nccn3C)nc3cc(OC)c(OC)cc23)cc1OC | 152 to 153 °C
20 | CC12CCC=CC1=CCC1C2CCC2(C)C(c3cccnc3)=CCC12 (stereo not drawn) | 110 to 112 °C
21 | O=C(Nc1ccc(Cc2nnn[nH]2)cc1)C(F)(F)C(F)(F)C(F)(F)C(F)(F)C(F)(F)C(F)(F)C(F)(F)F | 193 to 194 °C
22 | CC(C)(C)OC(=O)[C@H]1C[C@@H](S(=O)(=O)c2ccccc2F)[C@@H](c2ccccc2F)N1 (racemic) | 202 °C
23 | Cc1c(C)c2c(c(C)c1O)CCC(C)(CCOC(=O)C(C)c1ccc(-c3ccccc3)c(F)c1)O2 (stereo not drawn) | 85 to 87 °C

Row | Structure (SMILES) | melting point
24 | O=C(CC1CCOCC1)Oc1cc(=O)n(-c2ccccc2)c2ncccc12 | 169 to 171 °C
25 | CC1(C)OC(=S)Nc2ccc(-c3cccc(CC#N)n3)cc21 | 215 to 217 °C
26 | CC1CC(O)=CC(=O)O1 (stereo not drawn) | 103 to 104 °C
27 | O=C(O)c1cccc(N2CCC(N=Cc3ccccc3)=N2)c1 | 185 °C
28 | NC(=O)CNS(=O)(=O)c1ccc(CCN2CC=C(c3c[nH]cc3-c3ccncc3)CC2c2ccc(F)cc2)cc1 (stereo not drawn) | 230 to 233 °C
29 | COc1ccc2c(c1)c1c(n2CCBr)C(=O)CCC1 | 119 °C
30 | Cc1nc2cc(NCC(=O)C(C)(C)C)ccc2s1 | 108 to 111 °C
31 | CCOC(=O)NC(=O)N1CC1C#N (stereo not drawn) | 108 to 110 °C
32 | COC1CN(Cc2ccc(Nc3cc(-c4cccc(-n5ncc6cc(C(C)(C)C)cc(F)c6c5=O)c4CO)nn(C)c3=O)nc2)C1 | 140 to 142 °C
33 | O=C(O)CN1C(=O)C(=Cc2ccc([N+](=O)[O-])cc2)SC1=S | 274 to 277 °C
34 | O=C(OCC(F)(F)F)c1ncn2c1CN=C(c1ccccc1F)c1cc(Br)ccc1-2 | 223 to 224 °C
35 | COC(=O)c1ccc(SC#N)c([N+](=O)[O-])c1 | 93 to 96 °C
36 | O=C1CCCC(=O)C1C(=O)c1ccccc1[N+](=O)[O-] | 132 to 135 °C
37 | Nc1cnc2cccnc2c1O | 315 to 320 °C
38 | CCCCn1c(=O)c2c(nc(C)n2S(=O)(=O)c2ccc(C)cc2)n(CCCC)c1=O | 111 to 113 °C
39 | COc1ccc2[nH]c(C(=O)OC(C)(C)C)c(N)c2c1 | 146 to 147 °C
40 | N#CCc1ccc(-n2cc(Cl)cn2)cc1Cl | 140 °C
41 | CCCCC1=NC(Cl)(COC)CN1Cc1ccc(C(=O)O)cc1 (stereo not drawn) | 126 to 128 °C
42 | O=C1c2ccccc2C(=O)N1C(Cc1ccccc1)CP(=O)(O)O (stereo not drawn) | 127 to 130 °C
43 | CCOC(=O)C(CBr)=C1CC(=O)CCC1=N | 170 to 175 °C
44 | CC(C)(C)OC(=O)NC1CCCCCC=CC2CC2(C(=O)NS(=O)(=O)C2CC2)NC(=O)C2CC(OC(=O)c3ccccc3)CN2C1=O (stereo not drawn) | 140 to 142 °C
45 | O=C(O)C1=CC(CF)(CF)Oc2ccc(C(F)(F)C(F)(F)F)cc21 | 173 to 174 °C
46 | ClC(Cl)=CCOc1cc(Cl)c(OCCC2COC(c3ccc(Cl)cc3)O2)c(Cl)c1 (stereo not drawn) | 84.1 °C

Row | Structure (SMILES) | melting point
47 | COc1cccc2c1CCN(c1nc(C)[nH]c(=O)c1[N+](=O)[O-])CC2 | > 200 °C
48 | CC(O)c1cnc(C(F)(F)F)nc1 (stereo not drawn) | 43 to 45 °C
49 | O=C(C1CSC(c2cccnc2)N1)N1CCN(c2ncccn2)CC1 (stereo not drawn) | 156 to 159 °C
50 | Cc1nc(-n2ccc(O)cc2=O)sc1C(=O)NCc1ccncc1 | 275 to 278 °C
51 | c1ccc2c(c1)Cc1cc(C3(Cn4cncn4)OCCO3)ccc1-2 | 187 °C
52 | CC#CC(C)(C)NC(=O)C(CC)Oc1ccc2ncc(Br)cc2c1 (stereo not drawn) | 109 to 112 °C
53 | CC(C)NC(=O)Cc1cccc(N)c1 | 93 to 95 °C
54 | N#Cc1cc(F)c(N2C(=O)c3ccccc3C2=O)cc1O | 247 °C
55 | CC(N)c1nnc(Cc2cccc3ccccc23)[nH]c1=O (stereo not drawn) | 180 °C
56 | Cc1c(-c2ccc(OCc3ccccc3)cc2)n(Cc2ccc(OCCN3[C@H](C)CCC[C@@H]3C)cc2)c2ccc(OCc3ccccc3)cc12 | 106 to 107 °C
57 | Cc1noc(-c2c(C)ncn2C)n1 | 95 °C
58 | O=[N+]([O-])c1ccc(-n2nccn2)cc1 | 183 to 184 °C
59 | COc1cc(-c2ccccc2C)cc2oc(=O)c(C)c(C)c12 | 145 °C
60 | COC(=O)n1cc(C=O)c(-c2ccc([N+](=O)[O-])o2)n1 | 187 to 189 °C
61 | CCCCc1nc(SC)c[nH]1 | 64 °C
62 | COC(=O)N[C@@H]1CCc2ccc(Br)cc2C1=O | 111 to 112 °C
63 | Clc1ccc(-c2cn3ccccc3n2)c(Cl)c1 | 174 to 177 °C
64 | CCOC(=O)C1=C[C@@H](OC(CC)CC)[C@@H](NC(C)=O)[C@H](N=[N+]=[N-])[C@@H]1O | 112 to 115 °C
65 | O=C(c1ccc(-n2cncn2)cc1)N1CCC(NCc2ccccc2)CC1 | 137 to 138 °C
66 | CCC(=O)NCC[C@@H]1CCc2cc(O)c3c(c21)CCO3 | 149 to 152 °C
67 | O=C(O)c1cc(Cl)c(F)c(Cl)c1F | 179 °C

Further lines, results first:

Row | melting point | Structure (SMILES)
68 | 192 to 194 °C | CC(C)c1cccc(C(C)C)c1NC(=O)CC1=C(c2ccccc2)c2cc(Cl)ccc2N(C)C1
69 | 85 to 87 °C | CCOC(=O)CCCCCOc1ccc(-c2ccccc2)c(-c2ccccc2)n1
70 | 168 to 170 °C | C[C@H]1C(=O)Nc2ccc(Cl)cc2N1C(=O)Oc1ccc(F)cc1
71 | 196 °C | Cn1ncnc1COc1nn2c(-c3ccccc3F)nncc2c1-c1c(F)cccc1F
72 | 101 to 104 °C | O[C@@H]1CN(Cc2ccccc2)C[C@H]1Oc1ccc(Cl)cc1 (relative stereo)
73 | 247 to 249 °C | O=C(Nc1ccccn1)Nc1nc(-c2ccccc2)cs1
74 | 154 to 155 °C | Cc1ccc(/C=C/c2nc(COc3ccc(CCCCn4ccnn4)cc3)co2)cc1
75 | 228 to 230 °C | O=C(O)Cc1cc(-c2ccc(Cl)cc2)n(-c2ccc(OCc3ccc4ccccc4n3)cc2)n1
76 | 112 to 114 °C | Cc1ccccc1C(CCC(=O)O)Oc1cc(OCc2ccsc2)ccc1-c1ncco1 (racemic)
77 | 100 to 102 °C | OC(CNC1CC1)COc1ccc(-c2nccs2)cc1 (stereo not drawn)
78 | 148 °C | O=c1ccc(Oc2ccccc2)n[nH]1
79 | 197 to 198 °C | Nc1cc(Oc2ccc(NC(=O)Nc3ccc(Cl)c(C(F)(F)F)c3)cc2)ncn1
80 | 82 to 83 °C | COc1ccnc(CS(=O)c2nc3cc(OC(F)F)ccc3n2S(=O)(=O)c2ccc(Cl)cc2)c1OC (stereo not drawn)
81 | 106 to 107 °C | O=C1c2ccccc2CN1CCOc1ccc(CO)cc1
82 | 196 to 197 °C | CC(C)Oc1nccc2c1C(c1ccccc1C(F)(F)F)c1c(ccnc1OC(C)C)N2
83 | > 300 °C | COc1ccc(OC(=O)Nc2cc(C(=O)O)cc(C(=O)O)c2)cc1

Row | melting point | Structure (SMILES)
84 | 163 to 164 °C | O=C(c1ccc(Cl)cc1)N1CCC(=Cc2ccc(C3=NCCO3)cc2)CC1
85 | 210 °C | Cc1cccc(NC(=O)NCC(=O)N2[C@@H](C(=O)N(C)c3ccccc3)CC[C@H]2c2ccccc2)c1 (racemic)
86 | 242 °C | Cc1c(NC(=O)c2ccc(NC(=O)c3ccccc3)cc2)ccc2cc(CN3CCCC3)cnc12
87 | 99 °C | c1ccc(Oc2ccc(OCc3nc(C4CC4)no3)cc2)cc1
88 | 144 to 150 °C | Cn1c(C(F)(F)F)cc(=O)n(-c2c(F)cc(Cl)c3nc(N)oc23)c1=O
89 | 105 to 106 °C | O=C(c1cnc(Cc2ccc(Cl)cc2)[nH]1)N1CCC(c2ccccc2)(c2ccccc2)CC1
90 | 103 to 105 °C | Clc1ccc2c(c1)CNc1cc(Cl)ccc1O2
91 | 79 °C | COc1cc(C(F)(F)F)cc(Cl)c1-n1nc(C#N)c(SC(C)(F)F)c1N
92 | 304 to 305 °C | Cc1[nH]c(C)c(-c2ccc(Oc3ccc(C(F)(F)F)cc3)cc2)c(=O)c1Br
93 | 151 to 152 °C | O=C(N[C@H](Cc1cccc(OC(F)(F)C(F)F)c1)[C@@H](O)c1cccc(F)n1)c1cccc2c1C=CCCC2 (racemic)
94 | 173 to 174 °C | Cc1sc(-c2ccccc2)nc1COc1ccc(COc2ccccc2CC(=O)O)cn1
95 | 70 to 75 °C | CCOC(=O)c1cc(=O)c2c(OCC(O)COc3cccc(C(F)(F)F)c3)cccc2o1 (stereo not drawn)
96 | 252 °C | Cc1c(C(=O)Nc2ccc(N3CCC(N4CCCCC4)CC3)c(C#N)c2)cnn1-c1ccc(Cl)cc1
97 | 66 to 67 °C | COC(=O)C(C)(C)Sc1cccc(OC(=O)Nc2ccc(C(F)(F)F)cc2)c1
98 | 113 to 116 °C | CSc1ccc2oc3cc(F)ccc3c(=O)c2c1
